Results taken from patent publication US11155586B2, “Cystine knot scaffold platform” (Genentech, Inc., priority 2015, dated 2021).
Read-outs that look alike come from different tables or passages of the source. Positions of bridges follow the written chain, without caps; N, C: chain ends. Residues, ends and D or L forms follow the SMILES beside them.

Columns and labels:
[1] = biological target: T1, hVEGF(8-109) (Homo sapiens, UniProt P15692); assay: Spot phage ELISA; assay type: binding
T1 construct: hVEGF(8-109) or BSA were coated on 384-well MAXISORP™ immunoplates
T1 sequence (P15692 214-315): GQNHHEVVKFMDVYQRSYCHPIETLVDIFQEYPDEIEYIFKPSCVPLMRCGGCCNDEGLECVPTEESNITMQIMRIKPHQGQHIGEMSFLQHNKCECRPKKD
In short: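 Clones counted positive when hVEGF(8-109) signal exceeded BSA background by over 3-fold, per spot ELISA using anti-M13-HRP/TMB detection. Phage came from overnight 37° C. cultures of individual clones picked after four binding rounds, supernatant diluted 1:3.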

[2] = biological target: T2, hVEGF-A (Homo sapiens, UniProt P15692); assay: KDR-CHO VEGF assay to determine cellular IC50 (VEGF mediated Tyr phosphorylation of KDR); assay type: cell-based
T2 sequence (P15692 207-395): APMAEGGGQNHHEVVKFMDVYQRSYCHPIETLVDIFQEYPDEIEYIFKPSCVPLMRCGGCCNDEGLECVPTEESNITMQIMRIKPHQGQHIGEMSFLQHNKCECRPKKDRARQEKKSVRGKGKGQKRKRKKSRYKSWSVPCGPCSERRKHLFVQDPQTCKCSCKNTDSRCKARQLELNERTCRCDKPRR

[3] = tested on: trypsin; assay: Resistance to trypsin digestion; assay type: in vitro ADME; details: for resistance to trypsin digestion: FIG. 4
Experimental: Approximately 20% of VEGF_CKP9.54.90 was cleaved at Arg13 within loop 2 after 24 h incubation with trypsin at 37° C.

[4] = biological target: T3, hVEGF-A (8-109) (Homo sapiens, UniProt P15692); assay: SPR binding assay (BIACORE 3000, 37° C.)
T3 sequence (P15692 34-135 isoform P15692-4): T1 sequence (P15692 214-315)
In short: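 VEGF-A, biotinylated and captured on streptavidin sensor or amine-coupled to CM5 at pH 5.0, to about 400 RU. Peptide concentration series in HBS-EP with 0.1% DMSO injected at […]; kinetics and affinities from 1:1 binding model fits.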

[5] = biological target: T3, hVEGF-A (8-109); assay: Phage competition ELISA; assay type: binding
[6] = KD, Table 37, surface plasmon resonance, VEGF-A
[7] = Table 37, surface plasmon resonance, VEGF-A
[8] = VEGF_CKP9 Loop1/Loop5 affinity-matured variants, Table 24
[9] = IC50 against VEGF-A in in vitro and cellular assays, Table 25, improved potency compared to parent VEGF-CKP9

CC[C@H](C)[C@@H]1NC(=O)[C@H](CC(N)=O)NC(=O)[C@@H](NC(=O)CN)CSSC[C@@H](C(=O)N[C@H](C(=O)N[C@H]2CSSC[C@@H](C(=O)NCC(=O)O)NC(=O)[C@H](CO)NC(=O)[C@H](CCC(N)=O)NC(=O)[C@H](Cc3ccc(O)cc3)NC(=O)[C@H](Cc3ccc(O)cc3)NC(=O)[C@H](CCC(N)=O)NC2=O)C(C)C)NC(=O)CNC(=O)[C@H](C)NC(=O)[C@H](CC(C)C)NC(=O)[C@@H]2CSSC[C@H](NC(=O)CNC(=O)[C@H](Cc3c[nH]c4ccccc34)NC(=O)[C@H](Cc3ccccc3)NC(=O)[C@@H]3CCCN3C(=O)[C@H](CC(C)C)NC(=O)[C@H](CCSC)NC1=O)C(=O)NCC(=O)N[C@@H](CCCNC(=N)N)C(=O)N[C@@H](CC(=O)O)C(=O)N[C@@H](Cc1ccccc1)C(=O)N[C@@H](CCC(=O)O)C(=O)N2 [VEGF_CKP9.54.90] (H-GCNIMLPFWGCGRDFECLAGCVCQYYQSCG-OH; disulfide 2-21, 11-17, 23-29; N-terminus and C-terminus assumed)
S/N (signal to noise ratio as compared to BSA control) ([1]; Table 26): 29.5 | ELISA ([1]; loop 2 variants based on 9.54 framework, Table 26): 2.3 | IC50 ([2]; Cellular IC50 (nM), Table 36, loop 3/loop 4 variants): 1.35 nM | IC50 ([2]; Cellular IC50, Table 28): 1.35 nM | FOLD IMPROVEMENT RELATIVE TO VARIANT 9.54.90 ([2]; Table 36, from cellular IC50): 1 | IC50 ([2]; Table 38, F8Y and/or unnatural amino acid variants, read-out: Cellular IC50): 1.35 nM | FOLD IMPROVEMENT RELATIVE TO VARIANT 9.54.90 ([2]; Table 38, from cellular IC50): 1 | metabolised at 24 h ([3]; 24 h incubation with trypsin at 37° C., read-out: fraction cleaved at Arg13 within loop 2): ~20% | resistance to trypsin digestion [3]: maintain a degree of resistance | Kd ([4]; KD (nM), hVEGF-A WT): 0.37 nM | Kd ([4]; KD (nM), human 8-109, Table 30): 0.87 nM | Kd [4, 6]: 0.4 ± 0.08 nM | kd [4, 7]: 0.17 | kd ([4]; hVEGF-A WT): 0.0300 | kd ([4]; human 8-109, Table 30): 4.05 × 10^−2

CC[C@H](C)[C@@H]1NC(=O)[C@H](CC(N)=O)NC(=O)[C@@H](NC(=O)CN)CSSC[C@@H](C(=O)N[C@H](C(=O)N[C@H]2CSSC[C@@H](C(=O)NCC(=O)O)NC(=O)[C@H](CO)NC(=O)[C@H](CCC(N)=O)NC(=O)[C@H](Cc3ccc(O)cc3)NC(=O)[C@H](Cc3ccc(O)cc3)NC(=O)[C@H](CCC(N)=O)NC2=O)C(C)C)NC(=O)CNC(=O)[C@H](C)NC(=O)[C@H](CC(C)C)NC(=O)[C@@H]2CSSC[C@H](NC(=O)CNC(=O)[C@H](Cc3c[nH]c4ccccc34)NC(=O)[C@H](Cc3ccccc3)NC(=O)[C@@H]3CCCN3C(=O)[C@H](CC(C)C)NC(=O)[C@H](CCSC)NC1=O)C(=O)N[C@@H](CCCCN)C(=O)N[C@@H](CCC(N)=O)C(=O)N[C@@H](CC(=O)O)C(=O)N[C@@H](CO)C(=O)N[C@@H](CC(=O)O)C(=O)N2 [VEGF_CKP9.54] (H-GCNIMLPFWGCKQDSDCLAGCVCQYYQSCG-OH; disulfide 2-21, 11-17, 23-29 (inferred); N-terminus and C-terminus assumed)
S/N (signal to noise ratio as compared to BSA control) ([1]; Table 24): 28.4 | ELISA [1, 8]: 2.1 | IC50 [5]: 450 nM | IC50 ([2]; Cellular IC50, Table 25): 188 nM | IC50 ([2]; Cellular IC50, Table 28): 188 nM | IC50 [2, 9]: 100 to 200 nM | Kd ([4]; KD (nM), hVEGF-A WT): 55 nM | Kd ([4]; KD (nM), human 8-109, Table 30): 176 nM | Kd [4, 6]: 44 ± 6 nM | kd [4, 7]: 2.3 | kd ([4]; hVEGF-A WT): 0.2349 | kd ([4]; human 8-109, Table 30): 2.18 × 10^−1

CC[C@H](C)[C@@H]1NC(=O)[C@H](CC(=O)O)NC(=O)[C@@H]2CCCN2C(=O)CNC(=O)[C@@H]2CSSC[C@H](NC(=O)[C@H](CC(=O)O)NC1=O)C(=O)N[C@@H](CC(C)C)C(=O)N[C@@H](C)C(=O)NCC(=O)N[C@H](C(=O)N[C@H](C(=O)N[C@H]1CSSC[C@@H](C(=O)NCC(=O)O)NC(=O)[C@H](CO)NC(=O)[C@H](CC(N)=O)NC(=O)[C@H](Cc3ccc(O)cc3)NC(=O)[C@H](Cc3c[nH]c4ccccc34)NC(=O)[C@H](Cc3c[nH]cn3)NC1=O)C(C)C)CSSC[C@H](NC(=O)CN)C(=O)N[C@@H](CC(=O)O)C(=O)N[C@@H](C(C)C)C(=O)N[C@@H](CCSC)C(=O)N[C@@H](CCC(N)=O)C(=O)N1CCC[C@H]1C(=O)N[C@@H](Cc1ccc(O)cc1)C(=O)N[C@@H](Cc1c[nH]c3ccccc13)C(=O)NCC(=O)N2 [VEGF_CKP9.63.12] (H-GCDVMQPYWGCGPDIDCLAGCVCHWYNSCG-OH; disulfide 2-21, 11-17, 23-29 (inferred); N-terminus and C-terminus assumed)
S/N (signal to noise ratio as compared to BSA control) ([1]; Table 27): 39.9 | ELISA ([1]; loop 2 variants based on VEGF_CKP9.63 framework, Table 27): 2.6 | FOLD IMPROVEMENT RELATIVE TO VARIANT 9.54.90 ([2]; Table 36, from cellular IC50): 0.74 | resistance to trypsin digestion [3]: maintain a degree of resistance | kd ([4]; hVEGF-A (8-109), Table 29): 0.10 | kd ([4]; hVEGF-A WT): 0.0096 | kd ([4]; human 8-109, Table 30): 2.50 × 10^−2

CSCC[C@@H]1NC(=O)[C@H](C(C)C)NC(=O)[C@H](CC(=O)O)NC(=O)[C@@H](NC(=O)CN)CSSC[C@@H](C(=O)N[C@H](C(=O)N[C@H]2CSSC[C@@H](C(=O)NCC(=O)O)NC(=O)[C@H](CO)NC(=O)[C@H](CC(N)=O)NC(=O)[C@H](Cc3ccc(O)cc3)NC(=O)[C@H](Cc3c[nH]c4ccccc34)NC(=O)[C@H](Cc3c[nH]cn3)NC2=O)C(C)C)NC(=O)CNC(=O)[C@H](C)NC(=O)[C@H](CC(C)C)NC(=O)[C@@H]2CSSC[C@H](NC(=O)CNC(=O)[C@H](Cc3c[nH]c4ccccc34)NC(=O)[C@H](Cc3ccc(O)cc3)NC(=O)[C@@H]3CCCN3C(=O)[C@H](CCC(N)=O)NC1=O)C(=O)N[C@@H](CCCCN)C(=O)N[C@@H](CCC(N)=O)C(=O)N[C@@H](CC(=O)O)C(=O)N[C@@H](CO)C(=O)N[C@@H](CC(=O)O)C(=O)N2 [VEGF_CKP9.63] (H-GCDVMQPYWGCKQDSDCLAGCVCHWYNSCG-OH; disulfide 2-21, 11-17, 23-29 (inferred); N-terminus and C-terminus assumed)
S/N (signal to noise ratio as compared to BSA control) ([1]; Table 24): 29.7 | ELISA [1, 8]: 2.0 | IC50 [5]: 146 nM | IC50 ([2]; Cellular IC50, Table 25): 140 nM | IC50 ([2]; Cellular IC50, Table 28): 140 nM | IC50 [2, 9]: 100 to 200 nM | Kd ([4]; KD (nM), hVEGF-A WT): 100 nM | Kd ([4]; KD (nM), human 8-109, Table 30): 281 nM | Kd ([4]; KD, hVEGF-A (8-109), Table 29): 100 nM | kd ([4]; hVEGF-A (8-109), Table 29): 1.6 | kd ([4]; hVEGF-A WT): 0.1624 | ka ([4]; human 8-109, Table 30): 6.62 × 10^5 | kd ([4]; human 8-109, Table 30): 1.81 × 10^−1
